The structures appear in SMILES notation. In brackets after ≈: the same amount, converted by molar mass. Bounds are passed on as bounds.

The subject of data set [1] is E. coli ΔtolC. The data set is described as follows: MIC determination. In kind it is cell-based. The note with it: Escherichia coli, read-out: MIC E. coli ΔtolC.
Data set [2] concerns E. coli WT DSM-1116. The data set is described as follows: MIC determination. In kind it is cell-based. To be noted: Escherichia coli, DSM1116, read-out: MIC E. coli WT, DSM-1116.
For data set [3], the system named is P. aeruginosa ΔmexAB (PA14ΔmexAB). The data set is described as follows: MIC determination. In kind it is cell-based. To be noted: Pseudomonas aeruginosa, read-out: MIC P. aeruginosa ΔmexAB.
Data set [4] deals with P. aeruginosa WT PA14. As to the kind of experiment: MIC determination. The note with it: for MIC: Pseudomonas aeruginosa, PA14, read-out: MIC P. aeruginosa WT, PA14. Type of data set: cell-based, Pseudomonas aeruginosa.
Data set [5] concerns S. aureus ATCC29213. The data set is described as follows: MIC determination. In kind it is cell-based. To be noted: Staphylococcus aureus, ATCC29213, read-out: MIC S. aureus, ATCC29213.
For data set [6], the target named is T1, E. coli gyrase (Escherichia coli, UniProt P0AES4). As to the kind of experiment: DNA gyrase supercoiling assay, method a. Type of data set: biochemical.
T1 sequence (P0AES4 whole entry): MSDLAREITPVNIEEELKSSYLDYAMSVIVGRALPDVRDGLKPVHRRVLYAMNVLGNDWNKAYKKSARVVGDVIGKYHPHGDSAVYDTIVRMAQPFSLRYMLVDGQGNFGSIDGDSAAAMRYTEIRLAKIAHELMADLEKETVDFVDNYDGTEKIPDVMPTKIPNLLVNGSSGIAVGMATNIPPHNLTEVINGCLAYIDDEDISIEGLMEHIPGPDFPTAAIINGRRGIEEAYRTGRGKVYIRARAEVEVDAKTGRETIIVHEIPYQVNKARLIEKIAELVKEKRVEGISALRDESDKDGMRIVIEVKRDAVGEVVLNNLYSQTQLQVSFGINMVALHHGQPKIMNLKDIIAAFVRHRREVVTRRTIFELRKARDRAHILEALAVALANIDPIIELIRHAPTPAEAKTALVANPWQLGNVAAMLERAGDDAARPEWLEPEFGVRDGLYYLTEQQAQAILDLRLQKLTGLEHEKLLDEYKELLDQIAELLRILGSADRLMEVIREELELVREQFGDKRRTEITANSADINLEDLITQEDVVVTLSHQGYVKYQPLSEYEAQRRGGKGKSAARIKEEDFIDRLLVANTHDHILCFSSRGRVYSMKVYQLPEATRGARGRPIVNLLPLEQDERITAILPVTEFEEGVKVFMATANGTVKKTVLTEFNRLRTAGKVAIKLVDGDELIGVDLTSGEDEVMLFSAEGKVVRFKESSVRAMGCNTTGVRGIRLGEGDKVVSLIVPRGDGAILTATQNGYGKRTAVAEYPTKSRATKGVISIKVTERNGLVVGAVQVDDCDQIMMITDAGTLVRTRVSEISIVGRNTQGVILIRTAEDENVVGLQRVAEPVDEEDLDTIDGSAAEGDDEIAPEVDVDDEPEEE
Data set [7] is classed as physicochemical.
The target in data set [8] is T1, E. coli gyrase. As to the kind of experiment: DNA gyrase supercoiling assay, method b. In kind it is biochemical. To be noted: for fold decrease of gyrase inhibition: compared to 22.
The subject of data set [9] is E. coli WT-3. As to the kind of experiment: MIC determination, larger panel. Type of data set: cell-based. The note with it: Escherichia coli, WT3, read-out: MIC E. coli WT-3.
Data set [10] has as its system E. cloacae DSM-30054. The data set is described as follows: MIC determination, larger panel. To be noted: Enterobacter cloacae, DSM30054, read-out: MIC E. cloacae. In kind it is cell-based.
Data set [11] relates to K. pneumoniae DSM-30104. As to the kind of experiment: MIC determination, larger panel. The note with it: Klebsiella pneumoniae, DSM30104, read-out: MIC K. pneumoniae. Type of data set: cell-based.
Data set [12] has as its system S. marcescens DSM-30121. As to the kind of experiment: MIC determination, larger panel. To be noted: Serratia marcescens, DSM30121, read-out: MIC S. marcescens. Type of data set: cell-based.
Data set [13] concerns P. mirabilis DSM-4479. As to the kind of experiment: MIC determination, larger panel. Type of data set: cell-based. The note with it: Proteus mirabilis, DSM4479, read-out: MIC P. mirabilis.
The test system of data set [14] is E. aerogenes DSM-30053. As to the kind of experiment: MIC determination, larger panel. In kind it is cell-based, Enterobacter aerogenes. The note with it: Klebsiella aerogenes, DSM30053, read-out: MIC E. aerogenes.
Data set [15] relates to P. aeruginosa ESBL 1 DSM-24600. As to the kind of experiment: MIC determination, larger panel. Type of data set: cell-based. To be noted: Pseudomonas aeruginosa, DSM24600, read-out: MIC P. aeruginosa ESBL 1.
The subject of data set [16] is P. aeruginosa ESBL 2 DSM-46316. As to the kind of experiment: MIC determination, larger panel. Type of data set: cell-based. The note with it: Pseudomonas aeruginosa, DSM46316, read-out: MIC P. aeruginosa ESBL 2.
In data set [17] the test system is A. baumannii DSM-30008. As to the kind of experiment: MIC determination, larger panel. Type of data set: cell-based. The note with it: Acinetobacter baumannii, DSM30008, read-out: MIC A. baumannii, DSM-30008.
The subject of data set [18] is E. faecalis ATCC-29212. As to the kind of experiment: MIC determination, larger panel. In kind it is cell-based. The note with it: Enterococcus faecalis, ATCC29212, read-out: MIC E. faecalis.

For `CC(C)Oc1c(NC(=O)c2ccc(NC(=O)[C@H](CC(N)=O)NC(=O)c3ccc(NC(=O)c4ccc([N+](=O)[O-])cc4)cc3)cc2)ccc(C(=O)Nc2ccc(C(=O)O)cc2)c1O` [Compound 4], the MIC (in general, the smallest concentration in the dilution series that meets the test's criterion for growth inhibition) in data set [1] was 0.125 µg/mL (≈ 0.15 µM); in data set [2] it was 1 µg/mL (≈ 1.2 µM); in data set [3], 1 µg/mL (≈ 1.2 µM); in data set [4], above 64 µg/mL; in data set [5], 1 µg/mL (≈ 1.2 µM). Also, the “MIC P. aeruginosa WT” value in data set [4] (PA14) is above 64 µg/mL. Moreover, the IC50 (in general, the concentration that gives 50% inhibition) in data set [6] amounted to 110 nM. Besides, the pKa (as a rule, the pH at which an ionisable group is half protonated) in data set [7] is below 8.
Take `CC(C)Oc1c(NC(=O)c2ccc(NC(=O)[C@H](CC(N)=O)NC(=O)c3ccc(NC(=O)c4ccccc4)cc3)cc2)ccc(C(=O)Nc2ccc(C(=O)O)cc2)c1O` [Compound 15]: the MIC in data set [2] is above 64 µg/mL.
On to `CC(C)Oc1c(NC(=O)c2ccc(NC(=O)[C@H](CC(N)=O)NC(=O)c3ccc(NC(=O)c4ccc(C(F)(F)F)cc4)cc3)cc2)ccc(C(=O)Nc2ccc(C(=O)O)cc2)c1O` [Compound 23], for which the MIC in [5] is 16 to 32 µg/mL (≈ 18.7 to 37.4 µM).
As for `CC(C)Oc1c(NC(=O)c2ccc(NC(=O)[C@H](CC(N)=O)NC(=O)c3ccc(NC(=O)c4ccc(NC(=O)c5ccc([N+](=O)[O-])cc5)cc4)cc3)cc2)ccc(C(=O)Nc2ccc(C(=O)O)cc2)c1O` [Compound 24], in data set [8] (compared to 4), the “fold reduced inhibitory activity in the gyrase assay” value is given as 20 fold.
In the case of `CC(C)Oc1c(NC(=O)c2ccc(NC(=O)[C@H](CC(N)=O)NC(=O)c3ccc(NC(=O)c4ccc(C#N)cn4)cc3)cc2)ccc(C(=O)Nc2ccc(C(=O)O)cc2)c1O` [Compound 31], in data set [9], the MIC came to 2 µg/mL (≈ 2.46 µM).
As to `CC(C)Oc1c(NC(=O)c2ccc(NC(=O)[C@H](CC(N)=O)NC(=O)c3ccc(NC(=O)c4ccc(C#N)s4)cc3)cc2)ccc(C(=O)Nc2ccc(C(=O)O)cc2)c1O` [Compound 32], the MIC in [9] was 1 µg/mL (≈ 1.22 µM); in [10], above 64 µg/mL; in data set [11] it was above 64 µg/mL; in [12], above 64 µg/mL; in [13], above 64 µg/mL.
Consider `C/C(=C\c1ccc(O)cc1)C(=O)Nc1ccc(C(=O)N[C@@H](CC(N)=O)C(=O)Nc2ccc(C(=O)Nc3ccc(C(=O)Nc4ccc(C(=O)O)cc4)c(O)c3OC(C)C)cc2)cc1` [Compound 45], for which the MIC in [9] was 0.125 µg/mL (≈ 0.148 µM); in data set [14] it was 1 µg/mL (≈ 1.19 µM); in data set [10], above 64 µg/mL; in data set [15] it was above 64 µg/mL; in [16], 2 µg/mL (≈ 2.37 µM); in [11], above 64 µg/mL. Also, the MIC came to 64 µg/mL (≈ 75.9 µM) in data set [12] and 2 µg/mL (≈ 2.37 µM) in [13].
With `C/C(=C\c1ccc(C#N)cc1)C(=O)Nc1ccc(C(=O)N[C@@H](CC(N)=O)C(=O)Nc2ccc(C(=O)Nc3ccc(C(=O)Nc4ccc(C(=O)O)cc4)c(O)c3OC(C)C)cc2)cc1` [Compound 46], the MIC in data set [17] amounted to 0.06 µg/mL (≈ 0.0704 µM); in data set [9], 0.125 µg/mL (≈ 0.147 µM).
Consider `CC(C)Oc1cc(C(=O)Nc2ccc(C(=O)O)cc2)ccc1NC(=O)c1ccc(NC(=O)[C@H](CC(N)=O)NC(=O)c2ccc(NC(=O)c3ccc([N+](=O)[O-])cc3)cc2)cc1` [Compound 52], for which the minimal inhibitory concentration (MIC) is 0.06 µg/mL (≈ 0.0735 µM) in data set [1]; above 64 µg/mL in [2]; 1 µg/mL (≈ 1.23 µM) in data set [3]; above 64 µg/mL in data set [4]; above 64 µg/mL in data set [5].
As to `CC(C)COc1c(NC(=O)c2ccc(NC(=O)[C@H](CC(N)=O)NC(=O)c3ccc(NC(=O)c4ccc([N+](=O)[O-])cc4)cc3)cc2)ccc(C(=O)Nc2ccc(C(=O)O)cc2)c1O` [Compound 53], the MIC in [1] was 2 µg/mL (≈ 2.36 µM); in [2], above 64 µg/mL; in data set [3], above 64 µg/mL; in data set [4] it was above 64 µg/mL; in [5], 1 µg/mL (≈ 1.18 µM).
For `Cn1cc(NC(=O)C(CC(N)=O)NC(=O)c2ccc(NC(=O)c3ccc(C#N)cc3)cc2)cc1-c1nc2ccc(C(=O)Nc3ccc(C(=O)O)cc3)c(O)c2[nH]1` (centres unmarked) [Compound 56], the IC50 in data set [6] is 10900 nM. For the same compound, the “fold decrease of gyrase inhibition” value in [8] is “approximately 100 fold”.
`CC(C)Oc1c(NC(=O)c2ccc(NC(=O)[C@H](CC(N)=O)NC(=O)c3ccc(NC(=O)c4ccc(C#N)cc4)cc3)cc2)ccc(C(=O)O)c1O` [Compound 67]: the “fold decrease of gyrase inhibition” value in data set [8] was “more than 100 fold”.
As for `CC(C)Oc1c(NC(=O)c2ccc(NC(=O)c3ccc(NC(=O)[C@H](CC(N)=O)NC(=O)c4ccc(NC(=O)c5ccc([N+](=O)[O-])cc5)cc4)cc3)c(OC(C)C)c2O)ccc(C(=O)O)c1O` [Compound 78], the MIC was 0.125 µg/mL (≈ 0.138 µM) in data set [1]; 0.5 µg/mL (≈ 0.552 µM) in [2]; 1 µg/mL (≈ 1.1 µM) in [3]; above 64 µg/mL in data set [4]; 0.05 µg/mL (≈ 0.0552 µM) in data set [5]. Besides, the IC50 in data set [8] turned out to be 200 nM.
On to `CC(C)Oc1c(NC(=O)c2ccc(NC(=O)c3ccc(NC(=O)[C@H](CC(N)=O)NC(=O)c4ccc(NC(=O)c5ccc(C#N)cc5)cc4)cc3)c(OC(C)C)c2O)ccc(C(=O)O)c1O` [Compound 79], for which the MIC in [1] is at most 0.03 µg/mL; in [2], 0.25 µg/mL (≈ 0.282 µM); in data set [3], 1 µg/mL (≈ 1.13 µM); in [4], 2 µg/mL (≈ 2.26 µM); in [5] it was at most 0.03 µg/mL. The compound also displayed an IC50 in data set [8] of 600 nM.
With `CC(C)Oc1c(NC(=O)c2ccc(NC(=O)c3ccc(NC(=O)[C@H](CC(N)=O)NC(=O)c4ccc(NC(=O)c5ccc(C#N)cn5)cc4)cc3)c(OC(C)C)c2O)ccc(C(=O)O)c1O` [Compound 80], the MIC in data set [1] was at most 0.03 µg/mL; in data set [2], 0.06 µg/mL (≈ 0.0677 µM); in data set [3], 0.5 µg/mL (≈ 0.564 µM); in [4], above 64 µg/mL; in [5] it was at most 0.03 µg/mL; in [18], at most 0.03 µg/mL. Also, the minimum inhibitory concentration (MIC) in [17] was 0.25 µg/mL (≈ 0.282 µM); in [9] it was 0.5 µg/mL (≈ 0.564 µM); in [14], 1 µg/mL (≈ 1.13 µM); in data set [10], above 64 µg/mL; in data set [15] it was above 64 µg/mL; in data set [16], above 64 µg/mL. The MIC in data set [12] is above 64 µg/mL.
For `CC(C)Oc1c(NC(=O)c2ccc(NC(=O)c3ccc(NC(=O)[C@H](CC(N)=O)NC(=O)c4ccc(NC(=O)c5ccc(C#N)s5)cc4)cc3)c(OC(C)C)c2O)ccc(C(=O)O)c1O` [Compound 81], the MIC in data set [1] was 0.06 µg/mL (≈ 0.0673 µM); in data set [2], 0.125 µg/mL (≈ 0.14 µM); in data set [3] it was 2 µg/mL (≈ 2.24 µM); in data set [4], above 64 µg/mL; in [5], 0.06 µg/mL (≈ 0.0673 µM); in data set [18] it was at most 0.03 µg/mL. Moreover, the MIC in data set [17] is 1 µg/mL (≈ 1.12 µM); in data set [9] it was 0.5 µg/mL (≈ 0.561 µM); in data set [14], 1 µg/mL (≈ 1.12 µM); in data set [10], above 64 µg/mL; in [15], above 64 µg/mL; in data set [16], above 64 µg/mL. Besides, the results for the MIC in data set [11], in data set [12] and in [13] were 1 µg/mL (≈ 1.12 µM), above 64 µg/mL and above 64 µg/mL, respectively.
`C/C(=C\c1ccc(C#N)cc1)C(=O)Nc1ccc(C(=O)N[C@@H](CC(N)=O)C(=O)Nc2ccc(C(=O)Nc3ccc(C(=O)Nc4ccc(C(=O)O)c(O)c4OC(C)C)c(O)c3OC(C)C)cc2)cc1` [Compound 82]: the MIC was at most 0.03 µg/mL in [1]; 0.125 µg/mL (≈ 0.135 µM) in [2]; 0.25 µg/mL (≈ 0.27 µM) in [3]; 1 µg/mL (≈ 1.08 µM) in [4]; 0.06 µg/mL (≈ 0.0648 µM) in data set [5]. The same compound yielded an IC50 in data set [8] of 200 nM.
As for `COC(=O)c1ccc(NC(=O)c2ccc(NC(=O)c3ccc(NC(=O)[C@H](CC(N)=O)NC(=O)c4ccc(NC(=O)c5ccc([N+](=O)[O-])cc5)cc4)cc3)c(OC(C)C)c2)cc1` [Compound 129], the MIC in [1], in [2], in [3], in [4] and in data set [5] was above 64 µg/mL each time.
Regarding `O=C(O)c1cn(C2CC2)c2cc(N3CCNCC3)c(F)cc2c1=O` [ciprofloxacin, reference compound], the MIC in data set [18] came to 1 µg/mL (≈ 3.02 µM); in [17], 0.32 µg/mL (≈ 0.966 µM); in [15], 8 µg/mL (≈ 24.1 µM); in data set [13] it was 0.06 µg/mL (≈ 0.181 µM).

The values above are taken from article PMC8148378 (Chemical Science, 2019).
